Data on one compound can be found in US20080267935A1, “AraC in combination with a cytokine-secreting cell and methods of use thereof” (Cell Genesys, Inc., priority 2007, published 2008).

Read-outs that look alike come from different tables or passages of the source.

On the set-up of data set [1]: species or system mice. The note with it: mouse, in vivo. The protocol:
Hematologic and Phenotypic Analysis. Mice were injected intraperitoneally with AraC using the treatment regimen described below. Peripheral blood was collected by retro-orbital puncture into EDTA-coated capillary tubes on days 1, 2, 3, 4, 6, 8 and 11. Hematologic analysis was performed by IDEXX pre-clinical Research Services (West Sacramento, Calif.).
Prior to conducting the in vivo efficacy studies in the leukemia tumor models, the hematological toxicity of AraC was determined. The animals received three i.p. injections of 100 mg/kg AraC (volume of injection: 200 μl) in 10 hour-increments. This treatment regimen is equal to a total dose of 900 mg/m^2 and is within the total dose range of 700 to 1400 mg/m^2 used clinically in human patients. Neutropenia and lymphopenia are known to be the primary dose-limiting toxicity observed in patients, so AraC treated mice were monitored for absolute neutrophil and lymphocyte counts. The results are shown in FIG. 2A and FIG. 2B, respectively. After the three AraC administrations, peripheral blood was collected by retro-orbital puncture into EDTA-coated capillary tubes on days 1, 2, 3, 4, 6, 8 and 11 and analyzed for neutropenia. The absolute neutrophil count in the animals dropped to 45 neutrophils/μl, by day 4, rebounded to control level at 600 neutrophils/μl, by day 6 and remained at a steady level of around 600 neutrophils/μl, thereafter (FIG. 2A), which is similar to untreated control animals.

The test system of another data set is C1498-luc tumor cells. Kind of data set: C1498-luc acute myeloid leukemia tumor model, survival and tumor burden. In kind it is in vivo, C57BL/6 mice.
Data set [2] relates to Acute myeloid leukemias (AMLs). The note with it: cited from earlier work; for complete remissions: remission induction.

Experimental for C1498-luc tumor cells: To assess the in vivo progression of systemic disease, 2.5×10^4 of C1498-luc cells were injected intravenously via tail vein into C57BL/6 mice, their syngeneic host, and the mice were examined every few days for the presence of luminescent signal via live imaging (FIG. 1A). […] A total photon count of 5×10^8 from an individual tumor bearing animal was used as the end point of life expectancy.
The efficacy of the combination of cytosine arabinoside (AraC) and GM-CSF secreting cells was evaluated by carrying out animal studies in the syngeneic C1498-luc tumor model. In this model, following challenge with C1498-luc tumor cells as described above, the mice were randomized into control and individual treatment groups, as detailed in the examples. For anti-tumor memory assessment, animals which had previously received AraC in combination with GM-CSF-secreting cells were rechallenged with a lethal dose of C1498-luc cells approximately 100 days after receiving the combination therapy. A typical study in the C1498-luc tumor model makes use of at least 6 and generally 10-15 mice per group in order to obtain statistically significant results. Statistical significance is evaluated using the Student's t-test.
Tumor Model. Female C57Bl/6 mice were challenged with C1498-luc cells via intra-tail-vein injections with 2.5×10^4 inocula. The mice were prepared for in vivo bioluminescence imaging 5 to 10 minutes post injection to confirm the initial trafficking of the tumor cells from tail vein to the lungs. Briefly, the mice were injected i.p. with 1.5 mg/g luciferin substrate (Xenogen Corp., Alameda, Calif.). Fifteen minutes later, the mice were anesthetized for in vivo bioluminescence imaging analysis. […] The animals were monitored by in vivo imaging every 5 to 7 days throughout the study to monitor the systemic progression of the tumor. Individual animals were euthanized when in vivo total photon counts exceeded 5×10^8 and/or when determined to be clinically paralyzed.
In Vivo Treatment. […]

`Nc1ccn([C@@H]2O[C@H](CO)[C@@H](O)[C@@H]2O)c(=O)n1` [AraC, 1-β-D-arabinofuranosylcytosine]: in data set [1], the absolute neutrophil count was determined as 600 neutrophils/μl and the “drop of lymphocyte counts” value is listed as “greater than 40%”. For the same compound, in data set [1] (ip, 100 mg/kg), the absolute neutrophil count turned out to be 45 neutrophils/μl and the “recovery of lymphocyte counts” value was “rebounded by day 6”. In addition, in the data set on C1498-luc tumor cells (C1498-luc tumor bearing mice), the “mice surviving for longer than 150 days post-challenge” value turned out to be 30%. Further, the “Number of tumor free animals 150 days post challenge” value with C1498-luc tumor cells (monotherapy) is 0/10. Moreover, the “Median Survival Time (MST)” value in the data set on C1498-luc tumor cells (monotherapy, AraC 3 i.p. injections of 100 mg/kg one day post challenge, or 1×10^6 irradiated C1498.GM s.c. day 7) is reported as 61 days. The dose-limiting toxicities result in data set [2] (patients) was “severe neutropenia and lymphopenia”. In data set [2] (patients older than 60), the complete remissions is given as −50%. For the same compound, the complete remissions in data set [2] (younger adults) is recorded as about 75%.
